The text below walks through data of patent publication US6756368B1, “Use of cobalt chelates for treating or preventing virus infection” (The Trustees of Columbia University in the City of New York, priority 1999, dated 2004).

For orientation: % Inhibition means how much of the control response was suppressed. Read a high % Inhibition as strong suppression.

Where “and” joins values, the source holds several entries; their conditions need not be identical. Equal entries are not always repeated. Entries after “also recorded” stand apart in the source; their conditions may differ. Where two headings read alike, the source gives them in different places.

In data set [1] the test system is HSV-1. Format: cell-based, HSV-1 Glasgow strain 17.
For data set [2] the following is noted: 50 μg/ml of CTC-96; cited from earlier work.
Data set [3] has as its system VZV. The data set can be described thus: VZV plaque formation. Format: cell-based. Conditions: data not shown.
For data set [4], the system named is HSV-1. The data set is described as follows: Fluorescence dequenching fusion assay with R18 labeled HSV-1. Format: cell-based, HSV-1 Glasgow strain 17. The conditions noted are these: 50 μg/ml.
The subject of data set [5] is HSV-1. The data set is described as follows: Virus entry assay, αTIF immunofluorescence. It counts as cell-based, HSV-1 Glasgow strain 17. On the procedure: (i) αTIF immunofluorescence. […] Pre-warmed media (37° C.) was added to each plate, incubated at 37° C. for the indicated times and washed twice with ice cold PBS on ice. The infected cells were fixed in 3.7% formaldehyde in PBS for 30 min at room temperature and washed with PBS. The fixed monolayers were permeabilized in −20° C. acetone at −20° C. for 10 min. Cells were washed with water and then PBS. Fixed cells were incubated in 10% normal goat serum (NGS; Roche, Indianapolis, Ind.) in 0.1% Tween 20 in PBS (PBST) for 20 min at RT and washed twice with PBST. Cover slips were then incubated in PBST containing 1% NGS and 1:200 polyclonal antibody anti-VP16 antibody (Clontech Laboratories, Inc.) for 30 min and washed 6 times with PBST. The infected cell monolayers were then incubated in PBST containing 1% NGS and 1:200 goat anti-rabbit IgG antibody conjugated to fluorescein isothiocyanate (FITC; Kirkegaard and Perry Laboratories, Inc.) for 30 min and washed 6 times with PBST. The cover slips were then mounted on slides in gel/mount solution (Biomeda, Fisher, Springfield, N.J.) and viewed with a 100× lens of a Zeiss LSM 4100 confocal laser scanning system attached to a Zeiss Axiovert 100TV inverted microscope. Each image is the average of 1 μm Z series.
There are several approaches to assessing the ability of virus to adsorb and enter a cell. […]

In data set [6] the test system is poliovirus. It counts as cell-based, poliovirus strain P1 Mahoney.
Data set [7] deals with Vero cells. The data set can be described thus: Cytotoxic effect on Vero cell monolayers.
Data set [8] concerns HSV-1. The data set is described as follows: Accumulation of virus-specified proteins (Western blot). It counts as cell-based, HSV-1 Glasgow strain 17. On the procedure: Protein preparation and western blot analysis were performed as previously described (54). Briefly, at the indicated times the infected cells were collected by centrifugation, resuspended in 1.5×SDS-PAGE sample buffer, and boiled for 10 min. The proteins were separated by SDS-PAGE and electrophorectically transferred to nitrocellulose membranes. Immunodetection of proteins was performed using the following antibodies: ICP0, rabbit polyclonal antibody CLU7 (54); ICP27, rabbit polyclonal antibody CLU38 (54); glycoprotein B (gB), rabbit polyclonal antibody R69 (provided by T. Kristie, National Institute of Allergy and Infectious Diseases) [Zhang, et al. 1991]; and _TIF, rabbit polyclonal antibody anti-VP16 (Clontech Laboratories Inc., Palo Alto, Calif.). The secondary antibodies used were goat anti-rabbit and goat anti-mouse IgG conjugated to horseradish peroxidase (Kirkegaard and Perry Laboratories, Inc., Gaithersburg, Md.). Immunoblots were developed as previously described (55).
Accumulation of Virus-Specified Proteins in the Presence of Drug. Failure to efficiently replicate virus DNA could result from a specific block of replication per se or because virus-specified gene expression is affected by drug. To address this issue cells were infected with HSV-1 at an moi of 5, 50 μg/ml of drug was either added at time 0, 1 hr pi or not added and at intervals post infection the infected cells were harvested and proteins were extracted and assayed for the presence of virus specified polypeptides by Western blot. […] The residual reactivity with ∝-TIF in the sample treated at T=0 results from protein associated with the infecting virions. There is no increase in the accumulation of this protein during the course of infection. It is not possible to exclude the possibility that virus never enters these cells and that the ∝-TIF that is detected results from cell associated virus.
Background: A western blot detects proteins with antibodies after separation by electrophoresis.

In the case of `CC(/C=C(/C)[O-])=NCCN=C(C)/C=C(/C)[O-].Cc1ncc[nH]1.Cc1ncc[nH]1.[Br-].[Co+3]` [CTC-96], in data set [1] (CTC-96 added at 1 or 10 hpi), the “syncytia formation by a syncytia forming virus” value was “unable to form syncytia”. Moreover, the “cell-to-cell spread (multi-celled foci)” value in data set [1] (CTC-96 added at 8 hpi) is reported as “unable to form multi-celled foci”. The “toxicity in animal models” value in data set [2] is listed as “does not appear to be toxic”. For the same compound, the VZV plaque formation result in data set [3] is reported as “inhibition of VZV plaque formation”. Moreover, the “fusion of the virus envelope with the plasma membrane” value in data set [4] is on record as “prevented HSV-1 fusion to the cell; also recorded: inhibits the fusion of the virion envelope with the plasma membrane; also recorded: inhibited”. Besides, the “fluorescence dequenching of R18” value in data set [4] (up to 40 min post-warming) was “significantly dampened”. Also, the “virus entry / nuclear accumulation of αTIF” value in data set [5] (50 μg/ml, MOI 100, 30-60 min after shift to 37° C.) was “no evidence for virus entering the cell; also recorded: unable to accumulate in the nucleus; also recorded: prevented nuclear accumulation”. Also, the “virus bound to cells” value in data set [5] (5 min after shift up to 37° C.) is listed as “less virus bound”. Further, the “% Inhibition” value in data set [6] (Poliovirus (P1/Mahoney), HeLa, 50 μg/ml of CTC-96, plaque assay) is 40%. Besides, the inhibition of poliovirus was determined as 42% in data set [6] (first run, 50 μg/ml) and 42% inhibition in data set [6] (second run, 50 μg/ml). Besides, in data set [6] (first run, 50 μg/ml), the “plaques recovered relative to −CTC-96” value is given as 58%. In addition, the poliovirus plaques is 91 and 80 in data set [6] (first run, dilution −6, 50 μg/ml in diluent, no drug in overlay); 10 and 9 in data set [6] (first run, dilution −7, 50 μg/ml in diluent, no drug in overlay); 0 in data set [6] (first run, dilution −8, 50 μg/ml in diluent, no drug in overlay); 165 in data set [6] (second run, dilution −6, 50 μg/ml, drug also in overlay); 18 and 16 in data set [6] (second run, dilution −7, 50 μg/ml, drug also in overlay). Moreover, the “effect on the cell monolayer” value in data set [7] (50 μg/ml, after two days of incubation) was “severely affected”. In addition, the “cytotoxicity on Vero cell monolayers” value in data set [7] (prolonged exposure (several days) to 50 μg/ml) is “cytotoxic effects; also recorded: cytotoxicity”. Also, the “accumulation of virus-specified proteins” value in data set [8] (50 μg/ml added 1 hr pi / after initiation of infection) is listed as “only a small effect; also recorded: little or no effect”. The “accumulation of gB (early) and α-TIF (late)” value in data set [8] (50 μg/ml added at time 0) is recorded as “no measurable accumulation”. In addition, the “synthesis of ICP0 and ICP27 (immediate early)” value in data set [8] (50 μg/ml added at time 0) is on record as “little if any synthesis”. The “accumulation of virus proteins of all kinetic classes” value in data set [8] (50 μg/ml present from the initiation of infection) is listed as “prevented the accumulation of gene products from all kinetic classes; also recorded: prevents synthesis of all kinetic classes of virus proteins”.
